Test system: K86415-001-R-J1-PDC complex spheroids, viability
Test: Anticancer human tumor K86415-001-R-J1-PDC patient-derived lung adenocarcinoma cell line growth inhibition [RAS]
Details: for IC50: curve of first compound; for viability, T/C: stronger effect = lower value
How it was run: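 Multi-cell-type spheroids: tumor cells plus HUVEC endothelial cells and mesenchymal stem cells. RAS-pathway inhibitors were combined with targeted agents, each dosed in half-log steps down from clinical Cmax, or from 10 microM when Cmax was unknown.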

[1] = second compound 0.0316 µM, first compound 0.0316 µM
[2] = second compound 0.0316 µM, first compound 0.1 µM
[3] = second compound 0.0316 µM, first compound 0.316 µM
[4] = second compound 0.0316 µM, first compound 1 µM
[5] = second compound 0.1 µM, first compound 0.0316 µM
[6] = second compound 0.1 µM, first compound 0.1 µM
[7] = second compound 0.1 µM, first compound 0.316 µM
[8] = second compound 0.1 µM, first compound 1 µM
[9] = second compound 0.316 µM, first compound 0.0316 µM
[10] = second compound 0.316 µM, first compound 0.1 µM
[11] = second compound 0.316 µM, first compound 0.316 µM
[12] = second compound 0.316 µM, first compound 1 µM
[13] = second compound 1 µM, first compound 0.0316 µM
[14] = second compound 1 µM, first compound 0.1 µM
[15] = second compound 1 µM, first compound 0.316 µM
[16] = second compound 1 µM, first compound 1 µM
[17] = second compound 3.16 µM, first compound 0.0316 µM
[18] = second compound 3.16 µM, first compound 0.1 µM
[19] = second compound 3.16 µM, first compound 0.316 µM
[20] = second compound 3.16 µM, first compound 1 µM
[21] = second compound 10 µM, first compound 0.0316 µM
[22] = second compound 10 µM, first compound 0.1 µM
[23] = second compound 10 µM, first compound 0.316 µM
[24] = second compound 10 µM, first compound 1 µM
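Note: spheroids exposed to agents for seven days before readout.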

Question: For `C=CC(=O)N1CCN(c2nc(OCC3CCCN3C)nc3c(F)c(-c4nc(N)cc(C)c4C(F)(F)F)c(Cl)cc23)C(C)C1` (centres undefined) + C#Cc1c(F)ccc2cc(O)cc(-c3ncc4c(N5CC6CCC(C5)N6)nc(OCC56CCCN5CC(F)C6)nc4c3F)c12, which IC50 (second compound 0.0316 µM) is on record?
Answer: Its IC50 is less than 3.16 nM.

Question: And the IC50 (second compound 0.1 µM)?
Answer: Its IC50 is less than 3.16 nM.

Question: What about the IC50 (second compound 0.316 µM) of the same compound?
Answer: Its IC50 is less than 3.16 nM.

Question: And the IC50 (second compound 1 µM)?
Answer: The IC50 was less than 3.16 nM.

Question: And the IC50 (second compound 3.16 µM)?
Answer: The IC50 was less than 3.16 nM.

Question: What about the IC50 (second compound 10 µM) of the same compound?
Answer: Its IC50 is less than 3.16 nM.

Question: What about the viability, T/C (second compound 0.0316 µM, first compound 0.00316 µM) of the same compound?
Answer: Its viability, T/C is 18.2%.

Question: What about the viability, T/C (second compound 0.0316 µM, first compound 0.01 µM) of the same compound?
Answer: The viability, T/C was 12.5%.

Question: And the viability, T/C [1]?
Answer: The viability, T/C was 11.4%.

Question: And the viability, T/C [2]?
Answer: Its viability, T/C is 11.2%.

Question: What about the viability, T/C [3] of the same compound?
Answer: The viability, T/C was 8.99%.

Question: What about the viability, T/C [4] of the same compound?
Answer: Its viability, T/C is 12%.

Question: What about the viability, T/C (second compound 0.1 µM, first compound 0.00316 µM) of the same compound?
Answer: Its viability, T/C is 19.5%.

Question: What about the viability, T/C (second compound 0.1 µM, first compound 0.01 µM) of the same compound?
Answer: Its viability, T/C is 12.3%.

Question: And the viability, T/C [5]?
Answer: The viability, T/C was 11.3%.

Question: And the viability, T/C [6]?
Answer: The viability, T/C was 10.5%.

Question: What about the viability, T/C [7] of the same compound?
Answer: Its viability, T/C is 7.88%.

Question: What about the viability, T/C [8] of the same compound?
Answer: The viability, T/C was 11%.

Question: And the viability, T/C (second compound 0.316 µM, first compound 0.00316 µM)?
Answer: Its viability, T/C is 19.9%.

Question: And the viability, T/C (second compound 0.316 µM, first compound 0.01 µM)?
Answer: Its viability, T/C is 11.8%.

Question: What about the viability, T/C [9] of the same compound?
Answer: The viability, T/C was 8.76%.

Question: What about the viability, T/C [10] of the same compound?
Answer: The viability, T/C was 12.1%.

Question: And the viability, T/C [11]?
Answer: Its viability, T/C is 9.15%.

Question: What about the viability, T/C [12] of the same compound?
Answer: The viability, T/C was 9.63%.

Question: And the viability, T/C (second compound 1 µM, first compound 0.00316 µM)?
Answer: Its viability, T/C is 18.6%.

Question: What about the viability, T/C (second compound 1 µM, first compound 0.01 µM) of the same compound?
Answer: Its viability, T/C is 13.6%.

Question: And the viability, T/C [13]?
Answer: The viability, T/C was 13.2%.

Question: What about the viability, T/C [14] of the same compound?
Answer: The viability, T/C was 8.99%.

Question: What about the viability, T/C [15] of the same compound?
Answer: Its viability, T/C is 10.1%.

Question: And the viability, T/C [16]?
Answer: Its viability, T/C is 10.7%.

Question: And the viability, T/C (second compound 3.16 µM, first compound 0.00316 µM)?
Answer: The viability, T/C was 19.5%.

Question: And the viability, T/C (second compound 3.16 µM, first compound 0.01 µM)?
Answer: Its viability, T/C is 13.4%.

Question: What about the viability, T/C [17] of the same compound?
Answer: Its viability, T/C is 9.24%.

Question: And the viability, T/C [18]?
Answer: Its viability, T/C is 9.62%.

Question: What about the viability, T/C [19] of the same compound?
Answer: Its viability, T/C is 9.96%.

Question: What about the viability, T/C [20] of the same compound?
Answer: Its viability, T/C is 9.83%.

Question: What about the viability, T/C (second compound 10 µM, first compound 0.00316 µM) of the same compound?
Answer: Its viability, T/C is 11.9%.

Question: And the viability, T/C (second compound 10 µM, first compound 0.01 µM)?
Answer: Its viability, T/C is 12.9%.

Question: And the viability, T/C [21]?
Answer: The viability, T/C was 10.9%.

Question: What about the viability, T/C [22] of the same compound?
Answer: Its viability, T/C is 9.94%.

Question: What about the viability, T/C [23] of the same compound?
Answer: Its viability, T/C is 10.1%.

Question: And the viability, T/C [24]?
Answer: The viability, T/C was 9.54%.

Question: What does the source list for `CC(=O)OC12COC1CC(O)C1(C)C(=O)C(O)C3=C(C)C(OC(=O)C(O)C(NC(=O)OC(C)(C)C)c4ccccc4)CC(O)(C(OC(=O)c4ccccc4)C21)C3(C)C` (centres undefined) + C#Cc1c(F)ccc2cc(O)cc(-c3ncc4c(N5CC6CCC(C5)N6)nc(OCC56CCCN5CC(F)C6)nc4c3F)c12?
Answer: IC50 (second compound 0.0316 µM): < 31.6 nM; IC50 (second compound 0.1 µM): < 31.6 nM; IC50 (second compound 0.316 µM): < 31.6 nM; IC50 (second compound 1 µM): < 31.6 nM; IC50 (second compound 3.16 µM): < 31.6 nM; IC50 (second compound 10 µM): < 31.6 nM; viability, T/C [1]: 29.3%; viability, T/C [2]: 30.7%; viability, T/C [3]: 32.6%; viability, T/C [4]: 30.9%; viability, T/C (second compound 0.0316 µM, first compound 3.16 µM): 37.5%; viability, T/C (second compound 0.0316 µM, first compound 10 µM): 35.7%; viability, T/C [5]: 30.8%; viability, T/C [6]: 34.4%; viability, T/C [7]: 28.6%; viability, T/C [8]: 32%; viability, T/C (second compound 0.1 µM, first compound 3.16 µM): 26.8%; viability, T/C (second compound 0.1 µM, first compound 10 µM): 37%; viability, T/C [9]: 32.2%; viability, T/C [10]: 29.9%; viability, T/C [11]: 27.4%; viability, T/C [12]: 28.9%; viability, T/C (second compound 0.316 µM, first compound 3.16 µM): 29.2%; viability, T/C (second compound 0.316 µM, first compound 10 µM): 28.8%; viability, T/C [13]: 34.2%; viability, T/C [14]: 33.9%; viability, T/C [15]: 28.7%; viability, T/C [16]: 32.6%; viability, T/C (second compound 1 µM, first compound 3.16 µM): 25.9%; viability, T/C (second compound 1 µM, first compound 10 µM): 26.7%; viability, T/C [17]: 23.9%; viability, T/C [18]: 26.8%; viability, T/C [19]: 27.1%; viability, T/C [20]: 26.5%; viability, T/C (second compound 3.16 µM, first compound 3.16 µM): 29.4%; viability, T/C (second compound 3.16 µM, first compound 10 µM): 24.5%; viability, T/C [21]: 20.1%; viability, T/C [22]: 19.1%; viability, T/C [23]: 19.5%; viability, T/C [24]: 19.3%; viability, T/C (second compound 10 µM, first compound 3.16 µM): 18.2%; viability, T/C (second compound 10 µM, first compound 10 µM): 15.3%
